Laboratory results from publication PMC11340618 (iScience, 2024).

Test system: intracellular Mtb ΔptpA mutant in THP-1 cells
Format: cell-based, Mycobacterium tuberculosis

Question: How did the “dose-dependent activity against intracellular Mtb” value turn out when `O=C(NCc1ccccn1)Nc1cc(N2CC(CCc3ccccc3)CC2=O)ccn1` (stereo not shown) [P-4423632] was run?
Answer: not against a ΔptpA mutant
